The source of these data is patent US9469652B2, “ERK inhibitors” (Eli Lilly and Company, priority 2014, dated 2016).

Test [1] relates to human colorectal cancer cells HCT116. As to the kind of experiment: In vivo combination study, HCT116 KRAS mutant colorectal cancer xenograft model. Particulars: oral, 28 days, single agent. The procedure:
(§1) More specifically, the compound of Example 1 is tested in combination with either the pan-RAF inhibitor compound or the CDK4/6 inhibitor compound in HCT116, a KRAS mutant colorectal cancer xenograft model. Also, the compound of Example 1 is tested in combination with either the CDK4/6 inhibitor compound or DC101 in NCI-H441, A549, and NCI-H2122, KRAS mutant non-small cell lung cancer (NSCLC) xenograft models.
The HCT116 combination efficacy study is done in athymic nude rats. Expand human colorectal cancer cells HCT116 (ATCC, #CCL-247) in culture, harvest and inject 5×10e^6 cells in 200 μL of 1:1 HBSS+matrigel solution subcutaneously on to the rear right flank of female NIH nude rats (120-145 gm, Taconic Farms). Measure tumor growth and body weight twice per week beginning the seventh day after the implantation. When average tumor sizes reach 200-300 mm^3, randomize animals and group into groups of five to seven animals. Prepare test compound in an appropriate vehicle (see below) and administer by oral gavage for 21 to 28 days. Tumor response is determined by tumor volume measurement performed twice a week during the course of treatment. Vehicle used in this study is 1% HEC (hydroxy ethyl cellulose)/0.25% Tween® 80/0.05% Antifoam. The compound of Example 1 and the pan-RAF inhibitor compound are formulated in 1% HEC/0.25% Tween® 80/0.05% Antifoam. The CDK4/6 inhibitor compound is formulated in 1% HEC in 25 mM Sodium phosphate buffer, pH 2.

Test [2] deals with human non-small cell lung cancer cells NCI-H441 (KRAS_G12V). As to the kind of experiment: In vivo combination study, NCI-H441 NSCLC xenograft model. The note with it: single agent. Here is the method: as §1
(§2) Combination efficacy is also tested in three KRAS mutant NSCLC xenograft models including A549 (KRAS_G12S) in SCID mice as well as NCI-H441 (KRAS_G12V) and NCI-H2122 (KRAS_G12C) in athymic nude mice. Expand human non-small cell lung cancer cells NCI-H441 (ATCC, #CRL-5807) and NCI-H2122 (ATCC, #CRL-5985) in culture, harvest and inject 5×10e^6 cells in 200 μL of 1:1 HBSS+matrigel solution subcutaneously on to the rear right flank of female athymic nude mice (20-22 gm, Harlan Laboratories). Expand human non-small cell lung cancer cells A549 (ATCC, #CC1-185) in culture, harvest and inject 5×10e^6 cells in 200 μL of 1:1 HBSS+matrigel solution subcutaneously on to the rear right flank of female CB-17 SCID mice (18-20 gm, Taconic Farms). For all cell lines, measure tumor growth and body weight twice per week beginning the seventh day after the implantation. When average tumor sizes reach 200-300 mm^3, randomize animals and group into groups of five to seven animals. Prepare test compound in an appropriate vehicle (see below) and administer by oral gavage (compound of Example 1 and the CDK4/6 inhibitor compound) or intraperitoneally (DC101) for 21 to 28 days. Tumor response is determined by tumor volume measurement performed twice a week during the course of treatment. Vehicle used in these studies is 1% HEC/0.25% Tween® 80/0.05% Antifoam. The compound of Example 1 is formulated in 1% HEC/0.25% Tween® 80/0.05% Antifoam and the CDK4/6 inhibitor compound is formulated in 1% HEC in 25 mM sodium phosphate buffer, pH 2. […] In the same NCI-H441 xenograft model, DC101 in phosphate buffer is also administered intraperitoneally twice per week (BIW) as a single agent or in combination with the compound of Example 1, 50 mpk, QD for 28 days.

The test system of test [3] is human non-small cell lung cancer cells A549 (KRAS_G12S). The test is described as follows: In vivo combination study, A549 NSCLC xenograft model. The note with it: single agent. Also on record: species or system female CB-17 SCID mice. Here is the method:
as §1, §2

Test [4] deals with human non-small cell lung cancer cells NCI-H2122 (KRAS_G12C). As to the kind of experiment: In vivo combination study, NCI-H2122 NSCLC xenograft model. Also on record: species or system female athymic nude mice. The note with it: single agent. The procedure: as §1, §2

On to `CNc1ncc2cc(-c3cc(NC(=O)NCCC(C)(C)C)c(F)cc3C)c(C)nc2n1` [pan-RAF inhibitor, 1-(3,3-dimethylbutyl)-3-(2-fluoro-4-methyl-5-(7-methyl-2-(methylamino)pyrido[2,3-d]pyrimidin-6-yl)phenyl)urea], for which the figures for the “Delta T/C %” value in test [1] (10 mg/kg BID) and in test [1] (20 mg/kg BID) were 71% and 32%, respectively. For the same compound, the TGI % came to 29% in test [1] (10 mg/kg BID) and 68% in test [1] (20 mg/kg BID).

On to `CCN1CCN(Cc2ccc(Nc3ncc(F)c(-c4cc(F)c5nc(C)n(C(C)C)c5c4)n3)nc2)CC1` [CDK4/6 inhibitor, [5-(4-ethyl-piperazin-1-ylmethyl)-pyridin-2-yl]-[5-fluoro-4-(7-fluoro-3-isopropyl-2-methyl-3H-benzoimidazol-5-yl)-pyrimidin-2-yl]-amine, reference compound], for which the “Delta T/C %” value in test [1] (20 mg/kg QD) came out at 24%; in test [2] (50 mg/kg QD, oral, 28 days), 19%; in test [3] (50 mg/kg QD, oral, 28 days) it was 49%; in test [4] (50 mg/kg QD, oral, 28 days), 47%. For the same compound, the TGI % in test [1] (20 mg/kg QD) turned out to be 76%. In addition, the tumor growth inhibition in test [2] (50 mpk) was determined as 81%; in test [3] (50 mpk) it was 51%; in test [4] (50 mpk), 53%.
